Laboratory results taken from ChEMBL document CHEMBL1201862, “PubChem BioAssay data set” (2004).
Calls of active or inactive are those of the source.

Assays:
[1] = P. falciparum Dd2 growth inhibitors, dose response, SYBR Green, cherry-picked samples (AID 1159567); assay type: functional, cell-based
[2] = HEp-2 cell cytotoxicity, dose response, cytotoxicity control for RSV inhibitor project, HTS (AID 2410); assay type: functional; details: human respiratory syncytial virus
[3] = microbe, parasite or virus in culture; assay type: functional; details: Mycobacterium tuberculosis
[4] = cytotoxicity toward NIH3T3 fibroblasts, dose response, counter-screen, cell-based, ATP luminescence, mouse fibroblasts (AID 2010); assay type: functional;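 also: cells exposed to compound for about 90 hours before reading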
[5] = inhibitors of intracellular T. cruzi replication, confirmation, NIH3T3 host cells, beta-gal luminescence (AID 2044); assay type: functional, cell-based;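 also: intracellular parasites grown in NIH/3T3 mouse fibroblasts as host cells; luminescent beta-galactosidase reporter signal from transgenic T. cruzi replicating inside host cells; inhibitors lower the luminescence signal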
BJ [6] = assay: cytotoxicity toward BJ-TERT fibroblasts, dose response, cell-based, RAS-independent, luminescence (AID 1933); assay type: functional; details: Homo sapiens
BJ [7] = assay: cells; assay type: functional, cell-based; details: Homo sapiens
[8] = cytotoxicity toward DRD oncogenic fibroblasts, dose response, cell-based, non-viral oncogenic, luminescence (AID 1934); assay type: functional; details: Homo sapiens
BJ [9] = assay: cytotoxicity toward BJ-TERT-LT-ST fibroblasts, dose response, cell-based, RAS-independent, luminescence (AID 1935); assay type: functional; details: Homo sapiens;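 also: BJ fibroblasts immortalized with TERT plus LT and ST oncogenes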
[10] = target: T1, Rac GTPase-activating protein 1 (Homo sapiens, UniProt Q9H0H5); assay: MgcRacGAP GTPase-activating activity inhibitors, confirmation, biochemical, ADP Hunter fluorescence, primary and confirmatory (AID 624330); assay type: functional
T1 sequence (Q9H0H5 whole entry): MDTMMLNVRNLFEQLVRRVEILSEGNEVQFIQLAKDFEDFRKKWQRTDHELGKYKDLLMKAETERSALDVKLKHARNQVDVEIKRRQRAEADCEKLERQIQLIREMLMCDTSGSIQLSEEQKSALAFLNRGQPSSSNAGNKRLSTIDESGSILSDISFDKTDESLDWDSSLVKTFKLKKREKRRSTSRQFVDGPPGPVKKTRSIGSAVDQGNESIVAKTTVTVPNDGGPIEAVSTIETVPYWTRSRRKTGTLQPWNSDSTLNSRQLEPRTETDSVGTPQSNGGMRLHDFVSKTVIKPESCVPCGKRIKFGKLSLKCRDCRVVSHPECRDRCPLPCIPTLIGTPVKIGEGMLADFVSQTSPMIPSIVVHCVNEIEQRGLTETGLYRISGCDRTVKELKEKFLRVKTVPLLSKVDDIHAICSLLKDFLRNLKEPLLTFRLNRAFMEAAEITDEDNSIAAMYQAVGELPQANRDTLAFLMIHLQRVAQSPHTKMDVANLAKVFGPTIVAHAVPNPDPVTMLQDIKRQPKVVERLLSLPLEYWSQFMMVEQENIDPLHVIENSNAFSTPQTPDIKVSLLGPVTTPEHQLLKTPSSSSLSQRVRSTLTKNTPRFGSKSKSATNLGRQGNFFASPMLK

Cytochrome P450 3A4 = Cytochrome P450 3A4 (Homo sapiens, UniProt P08684);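 also: CYP3A4 tested as one member of a cytochrome P450 panel screen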
INS1 = assay: beta cell apoptosis inhibitors, cytokine rescue, dose response, luminescence, retest (AID 449756); assay type: functional, cell-based; details: Rattus norvegicus;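 also: cell death triggered by IL-1 beta plus TNF-alpha plus IFN-gamma mixture; protective hits raise ATP signal compared with cytokine alone wells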
[11] = target: T2, Heat shock factor protein 1 (Mus musculus, UniProt P38532); assay: HSF1 potentiators in luciferase reporter cells, confirmation, cell-based, NIH3T3, luminescence, dose retest (AID 435004); assay type: functional;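 also: stress induced by proteasome inhibitor MG132 added 30 min after compound; luciferase reporter driven by HSF1 response element in NIH3T3 cells; actives raise luminescence as potentiators of the MG132 stress response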
T2 sequence (P38532 whole entry): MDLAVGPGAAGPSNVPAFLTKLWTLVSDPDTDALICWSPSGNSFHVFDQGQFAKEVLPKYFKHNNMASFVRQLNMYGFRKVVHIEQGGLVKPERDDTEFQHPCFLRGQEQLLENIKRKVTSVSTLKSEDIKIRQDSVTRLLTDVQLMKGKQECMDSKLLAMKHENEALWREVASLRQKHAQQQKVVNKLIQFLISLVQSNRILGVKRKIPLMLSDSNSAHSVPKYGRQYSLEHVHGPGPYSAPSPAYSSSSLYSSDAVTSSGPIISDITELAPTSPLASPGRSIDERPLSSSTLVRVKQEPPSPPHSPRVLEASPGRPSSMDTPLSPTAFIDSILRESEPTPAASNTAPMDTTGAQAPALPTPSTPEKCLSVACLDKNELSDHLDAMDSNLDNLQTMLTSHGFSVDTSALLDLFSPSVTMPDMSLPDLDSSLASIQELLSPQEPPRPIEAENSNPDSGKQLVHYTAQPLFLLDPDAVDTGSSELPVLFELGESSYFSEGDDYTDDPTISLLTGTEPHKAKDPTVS

[12] = target: T3, Corticotropin-releasing factor receptor 2/Corticotropin-releasing factor-binding protein (Homo sapiens, UniProt P24387+Q13324); assay: activators of CRF receptor 2 with binding protein – uHTS hits, confirmation (AID 602473); assay type: functional; details: read-out: EC50_Mean
T3 sequence (Q13324 whole entry): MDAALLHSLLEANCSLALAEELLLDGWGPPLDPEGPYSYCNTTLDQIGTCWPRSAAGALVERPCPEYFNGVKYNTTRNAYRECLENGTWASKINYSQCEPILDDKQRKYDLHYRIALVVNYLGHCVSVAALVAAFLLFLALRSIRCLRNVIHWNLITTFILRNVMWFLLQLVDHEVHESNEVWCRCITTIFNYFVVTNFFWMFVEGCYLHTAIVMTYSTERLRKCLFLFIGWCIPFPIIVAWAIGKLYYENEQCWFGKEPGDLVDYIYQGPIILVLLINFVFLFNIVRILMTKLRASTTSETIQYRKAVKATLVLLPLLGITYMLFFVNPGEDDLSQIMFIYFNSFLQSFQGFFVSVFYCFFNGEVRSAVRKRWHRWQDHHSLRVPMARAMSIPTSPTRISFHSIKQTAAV
T3 sequence (P24387 whole entry): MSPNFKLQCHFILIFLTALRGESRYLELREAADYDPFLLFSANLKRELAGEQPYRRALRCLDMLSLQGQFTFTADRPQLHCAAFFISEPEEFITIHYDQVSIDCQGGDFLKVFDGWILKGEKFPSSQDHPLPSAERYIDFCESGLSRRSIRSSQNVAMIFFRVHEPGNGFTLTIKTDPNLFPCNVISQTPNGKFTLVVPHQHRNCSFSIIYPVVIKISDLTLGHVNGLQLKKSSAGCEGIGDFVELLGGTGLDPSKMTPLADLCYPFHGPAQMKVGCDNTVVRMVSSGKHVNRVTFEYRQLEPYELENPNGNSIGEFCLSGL

Streptococcus = assay: Group A Streptococcus viability loss, dose response, counter-screen for streptokinase expression inhibitor project, luminescence, BacTiterGlo (AID 1915); assay type: functional, organism-based;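 also: potency for reduction of bacterial viability or growth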
[13] = test system: Streptococcus sp. 'group A'; assay: growth inhibition of control SK(-) GAS strain, dose response, counter-screen for streptokinase expression inhibitor project, luminescence, kanamycin, BacTiterGlo, confirmation (AID 1900); assay type: functional, organism-based
Streptokinase A = target: T4, Streptokinase A (Streptococcus pyogenes serotype M1, UniProt P10520); assay: S. pyogenes streptokinase expression inhibitors, potency, dose response, plasminogen activation absorbance, OD405 (AID 1914); assay type: functional, Streptococcus pyogenes M1 GAS;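 also: secreted streptokinase activity via plasminogen activation per viability signal from cell pellet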
T4 sequence (P10520 whole entry): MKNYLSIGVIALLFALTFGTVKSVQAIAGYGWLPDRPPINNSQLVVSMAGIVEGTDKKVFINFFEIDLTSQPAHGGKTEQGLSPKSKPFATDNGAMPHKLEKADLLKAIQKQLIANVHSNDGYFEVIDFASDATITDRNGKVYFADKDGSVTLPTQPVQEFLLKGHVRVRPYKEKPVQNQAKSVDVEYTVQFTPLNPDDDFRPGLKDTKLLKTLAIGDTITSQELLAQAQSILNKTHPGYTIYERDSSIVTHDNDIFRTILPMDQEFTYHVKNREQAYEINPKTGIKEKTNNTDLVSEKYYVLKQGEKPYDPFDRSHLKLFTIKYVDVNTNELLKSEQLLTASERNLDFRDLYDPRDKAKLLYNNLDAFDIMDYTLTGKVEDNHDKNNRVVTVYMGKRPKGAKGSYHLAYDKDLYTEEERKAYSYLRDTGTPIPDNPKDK

[14] = Luminescence Cell-Based Dose Retest to Confirm Inhibitors of Cancer Stem Cells. [Related pubchem assays (depositor defined):AID2717, AID2721]; assay type: functional; details: Homo sapiens
cells = assay type: functional

Chain of Cytochrome P450 3A4 (P08684 whole entry): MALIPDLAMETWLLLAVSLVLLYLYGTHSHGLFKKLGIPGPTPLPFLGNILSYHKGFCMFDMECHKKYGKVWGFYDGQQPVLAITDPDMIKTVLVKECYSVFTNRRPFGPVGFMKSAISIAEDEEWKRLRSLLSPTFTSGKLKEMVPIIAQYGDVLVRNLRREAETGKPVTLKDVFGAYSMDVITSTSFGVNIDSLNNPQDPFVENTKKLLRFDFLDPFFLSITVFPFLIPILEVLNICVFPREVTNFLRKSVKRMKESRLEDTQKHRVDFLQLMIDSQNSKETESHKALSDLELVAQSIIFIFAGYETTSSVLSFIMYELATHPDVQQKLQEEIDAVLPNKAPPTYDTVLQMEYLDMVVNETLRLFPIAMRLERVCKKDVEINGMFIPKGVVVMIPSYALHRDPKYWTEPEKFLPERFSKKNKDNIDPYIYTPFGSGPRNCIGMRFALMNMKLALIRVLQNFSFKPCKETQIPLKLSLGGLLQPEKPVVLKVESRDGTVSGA

C[C@H]1CN([C@@H](C)CO)C(=O)CCCn2nncc2CO[C@@H]1CN(C)C(=O)Nc1ccc(N2CCCCC2)cc1
AC50 [1]: > 39 µM (inactive)

COc1ccc(C#Cc2ccc3c(c2)[C@H]2[C@H](CCN2C(=O)C2CCC2)[C@@H](CO)N3)cc1
AC50 [1]: 3.22 µM (active)

O=C(Nc1cccc(-c2nnc(-c3ccco3)o2)c1)C(c1ccccc1)c1ccccc1
CC50 [2]: 15.2 µM (active)

COc1cc(OC)cc(-c2cc3nc(C)c(CCC(=O)NC(C)CCc4ccco4)c(C)n3n2)c1 (stereo not given)
CC50 [3]: 31.8 µM (active)
EC50 [4]: > 30 µM (not active)
EC50 [5]: 450 nM (active)

Cc1ccc(NC(=O)CSc2nc3ccccc3c(=O)n2CCCN2CCCCC2)cc1Cl
CC50 [3]: 14.4 µM (active)
EC50 [4]: > 60 µM (inconclusive)
EC50 [5]: 2290 nM (active)

COC(=O)/C(=C\Nc1ccc(Cl)cc1Cl)NC(=O)c1ccc(OC)cc1
EC50 (BJ [6]): 10 µM (inconclusive)
EC50 (BJ [7]): 57.7 µM (active)
EC50 [8]: 4.31 µM (active)
EC50 (BJ [9]): 15.3 µM (inconclusive)

Cc1c(C(=O)N/N=C/c2ccccc2)[nH]c2c([N+](=O)[O-])cccc12
EC50 (BJ [6]): 0.776 µM (active)
EC50 (BJ [7]): 73.1 µM (inconclusive)
EC50 [8]: 27.1 µM (inconclusive)
EC50 (BJ [9]): 0.708 µM (inconclusive)

COc1ccc2c3c(n(C)c2c1)[C@H](CO)N(C(=O)Nc1ccc(F)cc1)CC31CN(C(=O)NC2CCCC2)C1
AC50 [1]: 5.8 µM (active)

Cc1ccc(C)c(S(=O)(=O)N2CCN(C(=O)c3ccccc3Cc3ccccc3)CC2)c1
CC50 [2]: 22.6 µM (active)

CCOc1cc(/C=N/NC(=O)CN2CCCCC2)ccc1O
IC50 [10]: 50.4 µM (active)

Cc1ccc(C)c(OCC(O)CN2CCC(C)CC2)c1C (stereo not given)
IC50 [10]: 225 µM (active)

CCS(=O)(=O)N1CCCCN2[C@H](CO)[C@H](c3ccc(C#Cc4ccccc4OC)cc3)[C@@H]2C1
AC50 [1]: 8.09 µM (active)

COc1ccc(-c2cc(C(F)(F)F)nc(SCc3cccc(C(=O)O)c3)n2)cc1
AC50 (Cytochrome P450 3A4): 14.1 µM (inconclusive)
CC50 [2]: 22.2 µM (active)

CC(C)[C@H](CO)N(Cc1cccc(F)c1)c1nc(Nc2cccc(Cl)c2)c2ncn(C(C)C)c2n1
CC50 [3]: > 40 µM (active)

Cc1nn(-c2ccccc2)c2c1C1(C(=O)Nc3ccccc31)N1C(=N2)Sc2ccccc21 (stereo not given)
CC50 [2]: 18.4 µM (active)

CCOC(=O)c1nnc(-c2ccc(C)cc2)nc1Oc1ccccc1Cl
CC50 [2]: 21.3 µM (active)

Cc1nc(C)c(-c2csc(NCCc3ccccc3)n2)s1
AC50 (INS1): 18 µM (active)

COc1cccc(C(=O)N2CCN(C3CCCCC3)CC2)c1
IC50 [10]: 142 µM (active)

COc1ccc(CNC(=O)c2cc3c(c(-c4cccc(-c5cccc(C#N)c5)c4)n2)[C@H](CCO)N([S@@+]([O-])C(C)(C)C)C3)cc1
AC50 [1]: 3.46 µM (active)

CCOC(=O)c1nnc2cc(-c3ccccc3)nn2c1C
CC50 [2]: > 50 µM (active)

Cc1ccc2oc(C(Cl)(Cl)Cl)cc(=O)c2c1
EC50 [11]: 27.9 µM (active)

CCCCn1c(N)c(N(CC(C)C)C(=O)Cc2ccc(S(=O)(=O)N3CCOCC3)s2)c(=O)[nH]c1=O
EC50 [12]: 6.11 µM (active)

COc1ccc(-c2ccc3c(c2)S(=O)(=O)c2cccc(C(=O)NCCOc4ccccc4Cl)c2C3=O)cc1OC
AC50 (INS1): 3.41 µM (active)

Nc1ccc2nc(N)sc2c1
IC50 [10]: 9.57 µM (active)

CCCNC(=O)c1cc2c(c(-c3cccc(-c4cc5ccccc5o4)c3)n1)[C@@H](CCO)N(C(=O)NC(C)C)C2
AC50 [1]: 4.15 µM (active)

CCO/C(O)=C/C(C)=N/c1cc(C)nn1-c1ccccc1
EC50 [11]: > 260 µM (inactive)

O=c1cc(-c2ccccc2)oc2ccccc12 [FLAVONE]
CC50 [2]: 34.2 µM (active)

O=C(NCCN1CCN(c2cccc(Cl)c2)CC1)c1ccc(CSc2nc3cc[nH]cc-3n2)cc1
CC50 [3]: > 40 µM (active)

O=C(NC(CO)(CO)CO)c1coc(=O)c(Br)c1
EC50 [11]: > 260 µM (inactive)

Cc1ccc(/C=C/C(=O)c2ccc([N+](=O)[O-])o2)cc1
EC50 (Streptococcus): 14.2 µM (active)
EC50 [13]: 4.07 µM (active)
EC50 (Streptokinase A): 8.82 µM (active)
AC50 (INS1): 5.65 µM (active)

CN(C)/C=C1/C=C(c2ccccc2)OC1=O
IC50 [10]: 52.1 µM (active)

COc1ccc2c(c1)CCc1c(C(=O)N3CC4(C)CC3CC(C)(C)C4)noc1-2 (stereo not given)
EC50 [11]: > 260 µM (inactive)
AC50 [14]: < 160 nM (active)

CC(=N)/C(C#N)=C(/O)CSc1nnc(-c2ccccc2Br)o1
EC50 [11]: > 260 µM (inactive)

CC(=O)c1ccc(NC(S)=NC(C)c2ccc(Cl)cc2Cl)cc1 (stereo not given)
AC50 (INS1): 15.6 µM (active)

CCCCCCC(=O)Nc1nc(C)c(-c2csc(Nc3ccccc3OC)n2)s1
CC50 [2]: 15 µM (active)

COc1cc(CNc2ccc(N3CCN(C(C)=O)CC3)cc2)ccc1OCc1ccccc1
IC50 [10]: 12.8 µM (active)

O=C(Nc1nnc(-c2ccccc2)o1)c1cc(Cl)sc1Cl
EC50 [12]: > 53 µM (inactive)

COc1ccc(C#Cc2cccc(-c3nc(C(=O)N[C@@H]4CCN(Cc5ccccc5)C4)cc4c3[C@@H](CCO)N([S+]([O-])C(C)(C)C)C4)c2)cc1OC (stereo not given in full)
AC50 [1]: 3.58 µM (active)

O=[N+]([O-])c1ncccc1Oc1nc(-c2cccnc2)nc2ccccc12
CC50 [3]: > 40 µM (active)
IC50 (cells): 1.15 µM (active)
